Patent publication US8822517B2, “Arylosulfonamides for the treatment of CNS diseases” (Adamed SP. Z O.O., priority 2010, dated 2014)

Tests used:
[1] = molecular target: T1, serotonine transporter (SERT) receptor (Homo sapiens, UniProt P31645); test: Binding assay SERT (h), [3H]imipramine, CHO cells; details: read-out: SERT [%]
T1 construct: expressed in transfected cells; host or cells: CHO cells
Procedure, shortened: (§1)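 Binding read by scintillation counting. Non-specific component defined by excess unlabelled ligand and removed from total counts. Compounds at 1×10^−6 M.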

sigma σ receptor = test: Binding assay σ (non-selective), [3H]DTG, rat cerebral cortex; details: percent inhibition of control specific binding; compounds tested at 1×10^−6 M
Procedure, shortened: as §1

adrenergic α1 receptor = test: Binding assay α1 (non-selective), [3H]prazosin, rat cerebral cortex; details: percent inhibition of control specific binding; compounds tested at 1×10^−6 M
Procedure, shortened: as §1

muscarinic M3 receptor = molecular target: T2, muscarinic M3 receptor (Homo sapiens, UniProt P20309); test: Binding assay M3 (h), [3H]4-DAMP, CHO cells; details: read-out: M3 [%]
T2 construct: expressed in transfected cells; host or cells: CHO cells
Procedure, shortened: as §1

[2] = molecular target: T3, serotoninergic receptor 5-HT2C (Homo sapiens, UniProt P28335); test: Binding assay 5-HT2C (h), [3H]mesulergine, HEK-293 cells; details: read-out: 5-HT2C [%]
T3 construct: expressed in transfected cells; host or cells: HEK-293 cells
T3 sequence (P28335 33-458): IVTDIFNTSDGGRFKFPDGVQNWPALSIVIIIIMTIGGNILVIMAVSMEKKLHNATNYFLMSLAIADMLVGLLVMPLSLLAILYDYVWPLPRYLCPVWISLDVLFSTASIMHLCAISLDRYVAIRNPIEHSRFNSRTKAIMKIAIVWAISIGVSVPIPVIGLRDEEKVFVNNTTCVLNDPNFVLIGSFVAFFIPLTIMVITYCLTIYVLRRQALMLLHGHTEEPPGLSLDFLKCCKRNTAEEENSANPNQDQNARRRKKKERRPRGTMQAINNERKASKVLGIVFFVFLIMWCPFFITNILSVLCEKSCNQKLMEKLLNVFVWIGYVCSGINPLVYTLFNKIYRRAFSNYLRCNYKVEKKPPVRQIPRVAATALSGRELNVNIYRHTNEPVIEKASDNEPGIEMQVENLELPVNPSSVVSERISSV
Procedure, shortened: as §1

dopaminergic D3 receptor = dopaminergic D3 receptor (Homo sapiens, UniProt P35462); test: Binding assay D3 (h), [3H]methyl-spiperone, CHO cells; set-up: expressed in transfected cells; host or cells: CHO cells; details: read-out: D3 [%]
Procedure, shortened: as §1

[3] = molecular target: serotoninergic 5-HT6 receptor (Homo sapiens, UniProt P50406); test: Binding assay 5-HT6 (h), [3H]LSD, CHO cells; set-up: expressed in transfected cells; host or cells: CHO cells; details: read-out: 5-HT6
Procedure, shortened: as §1

[4] = molecular target: serotoninergic 5-HT7 receptor (Homo sapiens, UniProt P34969); test: Binding assay 5-HT7 (h), [3H]LSD, CHO cells; set-up: expressed in transfected cells; host or cells: CHO cells; details: read-out: 5-HT7
Procedure, shortened: as §1

adrenergic α2C receptor = molecular target: T4, adrenergic α2C receptor (Homo sapiens, UniProt P18825); test: Binding assay α2C (h), [3H]RX 821002, CHO cells; set-up: expressed in transfected cells; host or cells: CHO cells; details: read-out: α2C [%]
T4 sequence (P18825 1-462): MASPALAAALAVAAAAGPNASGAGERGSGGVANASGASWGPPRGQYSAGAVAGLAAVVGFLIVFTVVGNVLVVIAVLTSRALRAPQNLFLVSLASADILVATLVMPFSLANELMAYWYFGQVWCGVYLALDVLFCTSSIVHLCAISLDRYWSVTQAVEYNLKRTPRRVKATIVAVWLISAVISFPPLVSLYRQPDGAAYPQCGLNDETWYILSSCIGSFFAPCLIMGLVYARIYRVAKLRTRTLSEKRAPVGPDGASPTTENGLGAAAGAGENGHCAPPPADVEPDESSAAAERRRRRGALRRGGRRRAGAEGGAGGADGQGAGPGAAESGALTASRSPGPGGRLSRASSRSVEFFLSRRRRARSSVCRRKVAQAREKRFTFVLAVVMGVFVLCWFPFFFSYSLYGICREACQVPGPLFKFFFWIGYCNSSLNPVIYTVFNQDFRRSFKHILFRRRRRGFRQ
Procedure, shortened: as §1

dopaminergic D2 receptor = dopaminergic D2 receptor (Homo sapiens, UniProt P14416); test: Binding assay D2S (h), [3H]methyl-spiperone, HEK-293 cells; set-up: expressed in transfected cells; host or cells: HEK-293 cells; details: read-out: D2 [%]
Procedure, shortened: as §1

[5] = molecular target: T5, serotoninergic 5-HT1A receptor (Homo sapiens, UniProt P08908); test: Binding assay 5-HT1A (h), [3H]8-OH-DPAT, HEK-293 cells; set-up: expressed in transfected cells; host or cells: HEK-293 cells; details: read-out: 5-HT1A
T5 sequence (P08908 1-422): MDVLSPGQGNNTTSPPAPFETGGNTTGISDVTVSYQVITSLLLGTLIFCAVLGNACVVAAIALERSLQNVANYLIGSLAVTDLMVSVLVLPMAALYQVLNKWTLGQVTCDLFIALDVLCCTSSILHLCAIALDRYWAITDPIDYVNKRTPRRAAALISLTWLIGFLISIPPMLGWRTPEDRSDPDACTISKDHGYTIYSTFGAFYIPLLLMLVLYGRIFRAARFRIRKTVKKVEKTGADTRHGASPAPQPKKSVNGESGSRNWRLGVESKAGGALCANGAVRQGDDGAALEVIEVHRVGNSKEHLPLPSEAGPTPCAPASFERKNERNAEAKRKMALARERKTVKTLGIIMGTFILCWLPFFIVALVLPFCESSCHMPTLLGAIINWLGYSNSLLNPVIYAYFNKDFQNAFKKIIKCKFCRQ
Procedure, shortened: as §1

[6] = molecular target: serotoninergic 5-HT2A receptor (Homo sapiens, UniProt P28223); test: Binding assay 5-HT2A (h), [3H]ketanserin, HEK-293 cells; set-up: expressed in transfected cells; host or cells: HEK-293 cells; details: read-out: 5-HT2A
Procedure, shortened: as §1

[7] = molecular target: histaminergic H1 receptor (Homo sapiens, UniProt P35367); test: Binding assay H1 (h), [3H]pyrilamine, HEK-293 cells; set-up: expressed in transfected cells; host or cells: HEK-293 cells; details: read-out: H1 [%]
Procedure, shortened: as §1

Chain of serotoninergic 5-HT7 receptor (P34969 whole entry): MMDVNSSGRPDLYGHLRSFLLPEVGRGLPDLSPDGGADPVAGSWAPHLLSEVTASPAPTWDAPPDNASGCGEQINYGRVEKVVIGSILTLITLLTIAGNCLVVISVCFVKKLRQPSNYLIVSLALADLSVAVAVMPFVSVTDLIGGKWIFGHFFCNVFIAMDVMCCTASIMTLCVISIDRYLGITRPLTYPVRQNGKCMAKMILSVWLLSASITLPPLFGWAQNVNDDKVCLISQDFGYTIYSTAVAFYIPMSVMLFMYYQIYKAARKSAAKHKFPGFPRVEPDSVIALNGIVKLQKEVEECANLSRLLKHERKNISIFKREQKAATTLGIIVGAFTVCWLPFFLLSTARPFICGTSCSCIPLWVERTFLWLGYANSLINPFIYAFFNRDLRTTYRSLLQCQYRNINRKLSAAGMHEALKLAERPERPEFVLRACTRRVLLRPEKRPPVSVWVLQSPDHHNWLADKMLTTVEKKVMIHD
T2 sequence (P20309 whole entry): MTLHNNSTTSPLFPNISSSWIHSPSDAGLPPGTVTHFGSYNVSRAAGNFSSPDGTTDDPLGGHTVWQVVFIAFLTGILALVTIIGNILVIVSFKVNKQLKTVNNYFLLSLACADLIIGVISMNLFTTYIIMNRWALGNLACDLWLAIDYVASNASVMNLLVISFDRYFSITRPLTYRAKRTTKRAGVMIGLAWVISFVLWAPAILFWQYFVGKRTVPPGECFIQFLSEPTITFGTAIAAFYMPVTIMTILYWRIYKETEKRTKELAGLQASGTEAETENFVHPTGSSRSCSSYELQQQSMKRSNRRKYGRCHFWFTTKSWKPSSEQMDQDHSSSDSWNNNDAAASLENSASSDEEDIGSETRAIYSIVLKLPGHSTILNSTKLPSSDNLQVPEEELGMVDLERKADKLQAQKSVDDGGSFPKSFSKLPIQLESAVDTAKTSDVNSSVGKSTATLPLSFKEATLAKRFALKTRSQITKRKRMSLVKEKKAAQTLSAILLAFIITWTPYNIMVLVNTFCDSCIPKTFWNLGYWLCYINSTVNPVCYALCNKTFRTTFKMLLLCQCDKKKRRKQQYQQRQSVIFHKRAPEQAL
Chain of histaminergic H1 receptor (P35367 whole entry): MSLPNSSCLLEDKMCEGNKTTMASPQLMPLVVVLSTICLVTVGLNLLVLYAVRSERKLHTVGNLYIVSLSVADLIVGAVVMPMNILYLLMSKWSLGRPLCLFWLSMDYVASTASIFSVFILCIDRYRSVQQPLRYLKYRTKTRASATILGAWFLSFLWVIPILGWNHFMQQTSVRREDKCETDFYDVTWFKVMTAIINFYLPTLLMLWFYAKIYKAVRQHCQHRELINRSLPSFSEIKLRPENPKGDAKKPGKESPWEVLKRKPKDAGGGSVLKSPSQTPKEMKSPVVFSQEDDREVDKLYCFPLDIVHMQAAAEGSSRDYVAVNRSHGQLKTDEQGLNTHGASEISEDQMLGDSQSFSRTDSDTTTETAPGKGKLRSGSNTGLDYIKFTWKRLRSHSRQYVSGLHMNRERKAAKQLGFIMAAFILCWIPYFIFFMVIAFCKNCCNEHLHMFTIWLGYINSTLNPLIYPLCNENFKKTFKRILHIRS
Chain of serotoninergic 5-HT2A receptor (P28223 whole entry): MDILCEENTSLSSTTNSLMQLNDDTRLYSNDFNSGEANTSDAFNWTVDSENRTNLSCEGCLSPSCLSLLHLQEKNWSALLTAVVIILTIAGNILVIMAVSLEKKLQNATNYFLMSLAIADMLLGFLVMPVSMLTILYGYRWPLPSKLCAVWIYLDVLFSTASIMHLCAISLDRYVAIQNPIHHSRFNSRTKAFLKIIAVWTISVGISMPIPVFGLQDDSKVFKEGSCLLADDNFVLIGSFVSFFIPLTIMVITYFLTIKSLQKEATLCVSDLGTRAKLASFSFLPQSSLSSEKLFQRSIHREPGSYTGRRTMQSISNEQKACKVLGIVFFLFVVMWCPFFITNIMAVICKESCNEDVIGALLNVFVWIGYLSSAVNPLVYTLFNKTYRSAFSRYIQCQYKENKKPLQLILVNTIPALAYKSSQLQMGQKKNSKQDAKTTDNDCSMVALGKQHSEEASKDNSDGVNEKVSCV
Chain of dopaminergic D3 receptor (P35462 whole entry): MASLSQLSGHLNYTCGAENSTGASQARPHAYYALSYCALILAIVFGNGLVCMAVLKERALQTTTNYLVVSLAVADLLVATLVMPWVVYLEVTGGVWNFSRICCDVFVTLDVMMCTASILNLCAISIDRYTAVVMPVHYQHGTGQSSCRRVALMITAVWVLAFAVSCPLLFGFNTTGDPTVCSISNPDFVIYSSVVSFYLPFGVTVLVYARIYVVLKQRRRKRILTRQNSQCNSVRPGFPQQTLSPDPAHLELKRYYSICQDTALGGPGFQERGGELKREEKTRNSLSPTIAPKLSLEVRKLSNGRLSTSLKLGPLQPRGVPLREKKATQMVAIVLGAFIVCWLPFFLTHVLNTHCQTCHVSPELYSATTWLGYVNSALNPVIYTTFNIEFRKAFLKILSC
T1 sequence (P31645 whole entry): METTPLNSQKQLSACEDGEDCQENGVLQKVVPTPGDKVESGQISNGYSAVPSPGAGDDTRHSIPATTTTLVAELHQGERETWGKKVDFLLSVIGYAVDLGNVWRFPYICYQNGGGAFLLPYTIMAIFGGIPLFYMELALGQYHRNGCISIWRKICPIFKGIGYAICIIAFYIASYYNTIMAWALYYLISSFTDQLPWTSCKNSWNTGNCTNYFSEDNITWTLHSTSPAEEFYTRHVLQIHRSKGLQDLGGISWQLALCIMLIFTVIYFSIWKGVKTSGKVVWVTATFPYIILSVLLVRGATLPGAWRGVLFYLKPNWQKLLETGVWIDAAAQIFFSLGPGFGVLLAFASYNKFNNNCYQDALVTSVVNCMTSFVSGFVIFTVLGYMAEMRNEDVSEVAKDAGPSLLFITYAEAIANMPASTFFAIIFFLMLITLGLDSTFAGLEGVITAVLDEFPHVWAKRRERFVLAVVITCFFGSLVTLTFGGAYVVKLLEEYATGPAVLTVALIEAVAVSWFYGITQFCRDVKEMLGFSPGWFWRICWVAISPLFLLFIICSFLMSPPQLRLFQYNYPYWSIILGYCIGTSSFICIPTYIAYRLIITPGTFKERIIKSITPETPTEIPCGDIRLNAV
Chain of dopaminergic D2 receptor (P14416 1-414 isoform P14416-2): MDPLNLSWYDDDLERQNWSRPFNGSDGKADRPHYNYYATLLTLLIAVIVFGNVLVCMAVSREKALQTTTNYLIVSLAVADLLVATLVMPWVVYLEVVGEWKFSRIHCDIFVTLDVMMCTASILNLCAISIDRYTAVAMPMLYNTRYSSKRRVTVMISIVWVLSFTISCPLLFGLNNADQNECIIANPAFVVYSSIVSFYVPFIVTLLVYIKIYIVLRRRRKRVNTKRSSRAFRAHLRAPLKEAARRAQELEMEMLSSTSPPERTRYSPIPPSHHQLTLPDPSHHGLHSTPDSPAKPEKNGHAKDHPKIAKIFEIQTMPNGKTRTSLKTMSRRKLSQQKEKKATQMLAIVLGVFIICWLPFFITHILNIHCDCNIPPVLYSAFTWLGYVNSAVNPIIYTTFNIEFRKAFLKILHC
Chain of serotoninergic 5-HT6 receptor (P50406 whole entry): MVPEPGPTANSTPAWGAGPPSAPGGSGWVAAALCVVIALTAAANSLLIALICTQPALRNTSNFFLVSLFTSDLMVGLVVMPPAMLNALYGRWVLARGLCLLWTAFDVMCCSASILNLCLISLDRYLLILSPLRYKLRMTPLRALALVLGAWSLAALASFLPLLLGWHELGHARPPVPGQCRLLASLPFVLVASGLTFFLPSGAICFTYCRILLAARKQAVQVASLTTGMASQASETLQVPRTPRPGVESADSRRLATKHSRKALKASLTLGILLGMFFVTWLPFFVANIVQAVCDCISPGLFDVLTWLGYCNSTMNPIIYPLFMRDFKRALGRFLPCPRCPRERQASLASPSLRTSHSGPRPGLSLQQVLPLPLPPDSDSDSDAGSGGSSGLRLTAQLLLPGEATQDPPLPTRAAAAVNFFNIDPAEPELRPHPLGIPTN

SMILES | inhibition at 1 µM [1] [%] | σ [%] (sigma σ receptor) | α1 [%] (adrenergic α1 receptor) | inhibition at 1 µM (muscarinic M3 receptor) [%] | inhibition at 1 µM [2] [%] | inhibition at 1 µM (dopaminergic D3 receptor) [%] | inhibition at 1 µM [3] [%] | inhibition at 1 µM [4] [%] | inhibition at 1 µM (adrenergic α2C receptor) [%] | inhibition at 1 µM (dopaminergic D2 receptor) [%] | inhibition at 1 µM [5] [%] | inhibition at 1 µM [6] [%] | inhibition at 1 µM [7] [%]
O=S(=O)(NCCCCN1CCC(c2noc3cc(F)ccc23)CC1)c1ccc(F)c(F)c1 [Compound 295, 3,4-Difluoro-N-[4-[4-(6-fluoro-1,2-benzoxazol-3-yl)piperidin-1-yl]butyl]benzenesulphonamide] | 16 | 63 | 96 | 19 | 51 | 98 | 93 | 99 | 97 | 95 | 68 | 99 | 95
COc1cccc(S(=O)(=O)NCCCCN2CCC(c3noc4cc(F)ccc34)CC2)c1 [Compound 300, N-[4-[4-(6-Fluoro-1,2-benzoxazol-3-yl)piperidin-1-yl]butyl]-3-methoxybenzenesulphonamide] | 30 | 83 | 96 | 18 | 49 | 96 | 89 | 99 | 94 | 96 | 80 | 102 | 87
CC(C)(C)c1ccc(S(=O)(=O)NCCCCN2CCC(c3noc4cc(F)ccc34)CC2)cc1 [Compound 301, 4-tert-Butyl-N-[4-[4-(6-fluoro-1,2-benzoxazol-3-yl)piperidin-1-yl]butyl]benzenesulphonamide] | 45 | 73 | 96 | 18 | 79 | 96 | 94 | 98 | 98 | 96 | 77 | 101 | 88
O=S(=O)(NCCCCN1CCC(c2noc3cc(F)ccc23)CC1)c1ccc(Cl)s1 [Compound 308, 5-Chloro-N-[4-[4-(6-fluoro-1,2-benzoxazol-3-yl)piperidin-1-yl]butyl]thiophene-2-sulphonamide] | 28 | 86 | 91 | 30 | 57 | 95 | 83 | 99 | 96 | 96 | 81 | 102 | 92
Cc1c(S(=O)(=O)NCCCCN2CCC(c3noc4cc(F)ccc34)CC2)sc2ccc(Cl)cc12 [Compound 315, 5-Chloro-N-[4-[4-(6-fluoro-1,2-benzoxazol-3-yl)piperidin-1-yl]butyl]-3-methylbenzothiophene-2-sulphonamide] | 68 | 72 | −13 | 24 | 78 | 97 | 98 | 98 | 93 | 99 | 70 | 102 | 90
